Measurements from ChEMBL document CHEMBL5291721, “A preclinical secondary pharmacology resource illuminates target-adverse drug reaction associations of marketed drugs” (Nat Commun, 2023).

Key:
[1] = biological target: Muscarinic acetylcholine receptor M3 (Homo sapiens, UniProt P20309)
[2] = biological target: T1, Alpha-2B adrenergic receptor (Homo sapiens, UniProt P18089)
T1 sequence (P18089 whole entry): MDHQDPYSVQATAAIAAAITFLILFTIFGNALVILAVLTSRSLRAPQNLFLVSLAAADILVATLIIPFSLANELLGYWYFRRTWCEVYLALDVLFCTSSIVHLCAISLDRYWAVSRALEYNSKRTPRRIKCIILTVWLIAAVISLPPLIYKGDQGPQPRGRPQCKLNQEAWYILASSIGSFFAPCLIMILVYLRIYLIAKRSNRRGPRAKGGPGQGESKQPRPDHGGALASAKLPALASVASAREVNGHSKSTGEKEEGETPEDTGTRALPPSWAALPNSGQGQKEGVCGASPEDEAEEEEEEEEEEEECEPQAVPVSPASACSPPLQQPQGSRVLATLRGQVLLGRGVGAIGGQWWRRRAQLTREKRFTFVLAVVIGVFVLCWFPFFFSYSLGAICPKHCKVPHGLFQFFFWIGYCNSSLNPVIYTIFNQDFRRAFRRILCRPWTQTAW

[3] = biological target: T2, Alpha-1A adrenergic receptor (Homo sapiens, UniProt P35348)
T2 sequence (P35348 whole entry): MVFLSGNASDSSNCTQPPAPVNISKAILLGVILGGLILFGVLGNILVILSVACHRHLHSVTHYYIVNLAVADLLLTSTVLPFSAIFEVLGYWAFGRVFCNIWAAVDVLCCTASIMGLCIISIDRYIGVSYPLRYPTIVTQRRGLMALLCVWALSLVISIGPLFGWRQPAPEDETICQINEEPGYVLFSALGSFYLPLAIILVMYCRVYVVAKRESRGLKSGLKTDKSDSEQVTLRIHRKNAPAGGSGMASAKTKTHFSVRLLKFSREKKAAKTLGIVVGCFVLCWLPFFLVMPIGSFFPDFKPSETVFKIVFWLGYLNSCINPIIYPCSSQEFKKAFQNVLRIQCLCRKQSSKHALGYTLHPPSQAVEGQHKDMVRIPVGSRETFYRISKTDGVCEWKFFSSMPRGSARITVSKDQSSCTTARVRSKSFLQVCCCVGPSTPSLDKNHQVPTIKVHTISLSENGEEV

Vasopressin V1a receptor = Vasopressin V1a receptor (Homo sapiens, UniProt P37288)
Vasopressin V1a receptor, sequence (P37288 whole entry): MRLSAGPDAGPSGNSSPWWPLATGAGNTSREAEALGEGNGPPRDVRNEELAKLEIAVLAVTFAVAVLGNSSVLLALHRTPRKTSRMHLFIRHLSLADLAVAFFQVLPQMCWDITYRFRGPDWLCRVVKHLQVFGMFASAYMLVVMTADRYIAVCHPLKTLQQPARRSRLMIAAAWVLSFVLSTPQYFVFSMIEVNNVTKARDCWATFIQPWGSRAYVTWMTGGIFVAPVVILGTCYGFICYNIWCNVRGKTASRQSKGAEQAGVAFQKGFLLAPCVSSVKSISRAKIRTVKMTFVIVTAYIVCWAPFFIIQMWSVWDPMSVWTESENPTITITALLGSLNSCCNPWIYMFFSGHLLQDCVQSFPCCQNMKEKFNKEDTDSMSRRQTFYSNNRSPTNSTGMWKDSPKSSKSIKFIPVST

Glucocorticoid receptor = biological target: T3, Glucocorticoid receptor (Homo sapiens, UniProt P04150)
T3 sequence (P04150 whole entry): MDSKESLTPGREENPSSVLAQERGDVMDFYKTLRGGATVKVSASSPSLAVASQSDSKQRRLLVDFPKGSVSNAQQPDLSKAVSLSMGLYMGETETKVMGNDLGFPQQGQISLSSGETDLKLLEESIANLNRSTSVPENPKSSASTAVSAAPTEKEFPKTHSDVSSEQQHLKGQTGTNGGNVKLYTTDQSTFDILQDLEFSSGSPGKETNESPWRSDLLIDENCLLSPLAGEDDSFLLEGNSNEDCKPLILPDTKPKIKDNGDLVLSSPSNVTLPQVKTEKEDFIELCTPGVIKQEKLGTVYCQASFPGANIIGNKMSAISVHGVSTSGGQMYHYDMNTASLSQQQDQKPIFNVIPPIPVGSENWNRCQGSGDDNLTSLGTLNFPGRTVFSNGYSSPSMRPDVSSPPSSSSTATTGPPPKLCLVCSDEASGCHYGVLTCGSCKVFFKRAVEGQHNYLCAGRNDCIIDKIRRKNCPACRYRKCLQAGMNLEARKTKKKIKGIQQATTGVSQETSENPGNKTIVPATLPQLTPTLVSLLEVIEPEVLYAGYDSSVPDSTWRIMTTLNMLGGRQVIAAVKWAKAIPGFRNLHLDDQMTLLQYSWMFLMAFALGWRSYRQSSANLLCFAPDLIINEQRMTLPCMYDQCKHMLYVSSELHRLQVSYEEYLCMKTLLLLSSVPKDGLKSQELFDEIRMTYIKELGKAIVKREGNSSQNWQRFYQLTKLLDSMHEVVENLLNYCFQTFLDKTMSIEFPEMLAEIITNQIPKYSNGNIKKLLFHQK

Histamine H3 receptor = Histamine H3 receptor (Homo sapiens, UniProt Q9Y5N1)
Histamine H3 receptor, sequence (Q9Y5N1 whole entry): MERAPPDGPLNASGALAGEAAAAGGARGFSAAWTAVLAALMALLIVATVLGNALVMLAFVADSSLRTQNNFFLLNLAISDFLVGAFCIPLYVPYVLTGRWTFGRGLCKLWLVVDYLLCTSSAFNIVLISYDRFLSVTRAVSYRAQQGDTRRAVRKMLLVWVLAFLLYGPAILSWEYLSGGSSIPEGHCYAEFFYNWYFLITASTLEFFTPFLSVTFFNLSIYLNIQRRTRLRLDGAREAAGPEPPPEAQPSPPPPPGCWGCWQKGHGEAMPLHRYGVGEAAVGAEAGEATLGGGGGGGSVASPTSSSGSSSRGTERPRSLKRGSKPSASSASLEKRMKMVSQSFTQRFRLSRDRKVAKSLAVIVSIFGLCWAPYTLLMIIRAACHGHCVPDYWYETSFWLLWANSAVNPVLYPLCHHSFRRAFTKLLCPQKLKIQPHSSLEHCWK

[4] = biological target: T4, Equilibrative nucleoside transporter 1 (Homo sapiens, UniProt Q99808)
T4 sequence (Q99808 whole entry): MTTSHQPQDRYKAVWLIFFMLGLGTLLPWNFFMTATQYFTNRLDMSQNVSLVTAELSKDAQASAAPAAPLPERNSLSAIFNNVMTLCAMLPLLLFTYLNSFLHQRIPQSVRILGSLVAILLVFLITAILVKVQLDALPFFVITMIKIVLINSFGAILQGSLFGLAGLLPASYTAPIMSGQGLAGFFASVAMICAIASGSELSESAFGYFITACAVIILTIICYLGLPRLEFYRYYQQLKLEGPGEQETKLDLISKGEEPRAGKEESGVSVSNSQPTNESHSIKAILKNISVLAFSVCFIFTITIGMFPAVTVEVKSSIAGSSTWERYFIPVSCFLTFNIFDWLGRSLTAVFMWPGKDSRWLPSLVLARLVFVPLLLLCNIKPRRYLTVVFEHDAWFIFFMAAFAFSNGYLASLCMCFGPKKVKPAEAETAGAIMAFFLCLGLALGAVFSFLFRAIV

Histamine H1 receptor = Histamine H1 receptor (Homo sapiens, UniProt P35367)
Histamine H1 receptor, sequence (P35367 whole entry): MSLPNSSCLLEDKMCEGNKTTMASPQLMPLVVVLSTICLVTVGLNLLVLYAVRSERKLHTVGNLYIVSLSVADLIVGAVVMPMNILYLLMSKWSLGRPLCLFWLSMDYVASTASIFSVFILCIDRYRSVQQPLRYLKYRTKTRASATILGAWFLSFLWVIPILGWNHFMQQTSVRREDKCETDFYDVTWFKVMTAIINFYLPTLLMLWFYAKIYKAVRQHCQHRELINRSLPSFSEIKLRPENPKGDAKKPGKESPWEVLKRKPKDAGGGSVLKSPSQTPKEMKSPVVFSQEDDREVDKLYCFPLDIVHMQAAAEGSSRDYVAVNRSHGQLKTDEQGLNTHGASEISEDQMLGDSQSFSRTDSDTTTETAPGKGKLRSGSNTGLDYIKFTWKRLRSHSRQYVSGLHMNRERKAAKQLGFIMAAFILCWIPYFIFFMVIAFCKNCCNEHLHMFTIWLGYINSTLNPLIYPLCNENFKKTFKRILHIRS

Endothelin-1 receptor = biological target: T5, Endothelin-1 receptor (Homo sapiens, UniProt P25101)
T5 sequence (P25101 whole entry): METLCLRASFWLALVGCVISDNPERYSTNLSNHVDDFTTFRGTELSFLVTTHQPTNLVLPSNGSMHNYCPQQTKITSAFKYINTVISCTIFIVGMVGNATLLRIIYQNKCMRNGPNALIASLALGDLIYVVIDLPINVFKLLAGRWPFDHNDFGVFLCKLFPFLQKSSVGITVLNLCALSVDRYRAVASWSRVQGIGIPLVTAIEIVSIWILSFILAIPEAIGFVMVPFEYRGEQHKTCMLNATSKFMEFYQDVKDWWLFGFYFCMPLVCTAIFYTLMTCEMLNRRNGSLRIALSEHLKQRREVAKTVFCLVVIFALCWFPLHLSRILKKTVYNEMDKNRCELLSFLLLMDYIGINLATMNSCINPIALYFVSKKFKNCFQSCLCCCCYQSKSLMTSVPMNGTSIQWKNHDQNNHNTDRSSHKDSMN

[5] = biological target: T2, Alpha-1A adrenergic receptor; format: functional, cell-based
Mu-type opioid receptor = Mu-type opioid receptor (Homo sapiens, UniProt P35372); assay: biochemical; format: functional
Mu-type opioid receptor, sequence (P35372 whole entry): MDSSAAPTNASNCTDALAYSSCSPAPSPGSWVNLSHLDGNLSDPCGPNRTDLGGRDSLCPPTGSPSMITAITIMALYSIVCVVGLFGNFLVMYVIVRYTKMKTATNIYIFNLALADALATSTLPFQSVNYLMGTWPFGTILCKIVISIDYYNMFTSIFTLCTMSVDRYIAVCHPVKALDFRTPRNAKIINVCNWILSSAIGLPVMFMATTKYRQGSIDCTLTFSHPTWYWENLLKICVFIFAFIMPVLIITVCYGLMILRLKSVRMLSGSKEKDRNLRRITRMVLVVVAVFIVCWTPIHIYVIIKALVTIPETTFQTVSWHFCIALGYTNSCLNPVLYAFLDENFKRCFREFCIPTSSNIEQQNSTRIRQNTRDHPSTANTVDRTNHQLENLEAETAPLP

[6] = biological target: 5-hydroxytryptamine receptor 2A (Homo sapiens, UniProt P28223); format: functional, cell-based
5-hydroxytryptamine receptor 2A, sequence (P28223 whole entry): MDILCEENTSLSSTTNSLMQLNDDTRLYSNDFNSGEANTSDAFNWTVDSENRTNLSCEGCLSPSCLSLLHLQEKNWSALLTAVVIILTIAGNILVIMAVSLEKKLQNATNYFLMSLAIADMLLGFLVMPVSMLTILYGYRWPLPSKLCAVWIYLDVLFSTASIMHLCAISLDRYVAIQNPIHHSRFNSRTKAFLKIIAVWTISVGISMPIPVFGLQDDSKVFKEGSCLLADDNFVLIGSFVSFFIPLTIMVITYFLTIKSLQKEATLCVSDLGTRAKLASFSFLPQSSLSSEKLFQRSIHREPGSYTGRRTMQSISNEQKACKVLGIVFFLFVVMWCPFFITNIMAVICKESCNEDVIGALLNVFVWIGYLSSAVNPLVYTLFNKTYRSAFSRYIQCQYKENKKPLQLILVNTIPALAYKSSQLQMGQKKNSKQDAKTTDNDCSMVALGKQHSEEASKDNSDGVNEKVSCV
Also: assay procedure not described here.

Muscarinic acetylcholine receptor M3, sequence (P20309 whole entry): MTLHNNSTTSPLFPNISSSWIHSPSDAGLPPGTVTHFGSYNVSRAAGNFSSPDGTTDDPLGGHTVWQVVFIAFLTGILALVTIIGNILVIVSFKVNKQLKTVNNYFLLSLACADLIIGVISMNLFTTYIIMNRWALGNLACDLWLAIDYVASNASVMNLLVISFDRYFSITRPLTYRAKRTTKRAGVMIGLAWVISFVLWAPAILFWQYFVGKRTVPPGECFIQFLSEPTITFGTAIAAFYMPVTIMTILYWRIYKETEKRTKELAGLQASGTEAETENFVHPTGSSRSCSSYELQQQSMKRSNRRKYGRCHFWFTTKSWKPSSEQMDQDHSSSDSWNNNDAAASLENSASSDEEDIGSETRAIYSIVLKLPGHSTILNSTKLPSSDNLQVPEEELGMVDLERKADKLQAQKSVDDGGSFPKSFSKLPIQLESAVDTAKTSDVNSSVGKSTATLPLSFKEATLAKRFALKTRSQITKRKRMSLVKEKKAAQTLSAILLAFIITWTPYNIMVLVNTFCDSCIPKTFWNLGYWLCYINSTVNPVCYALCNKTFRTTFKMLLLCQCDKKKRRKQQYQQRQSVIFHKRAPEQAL

SMILES	AC50 [1]	AC50 [2]	AC50 [3]	AC50 (Vasopressin V1a receptor)	AC50 (Glucocorticoid receptor)	AC50 (Histamine H3 receptor)	AC50 [4]	AC50 (Histamine H1 receptor)	AC50 (Endothelin-1 receptor)	AC50 [5]	AC50 (Mu-type opioid receptor)	AC50 [6]
C[C@]12CC[C@H](O)CC1=CC[C@@H]1[C@@H]2CC[C@]2(C)C(c3cccnc3)=CC[C@@H]12 [ABIRATERONE]	> 30 µM	> 10 µM	> 10 µM	> 30 µM	> 30 µM	> 10 µM	> 30 µM	> 10 µM				
CC(=O)OCC[N+](C)(C)C [ACETYLCHOLINE]		> 10 µM	> 10 µM	> 30 µM	> 30 µM	> 10 µM	> 30 µM	> 10 µM	> 30 µM	> 30 µM		
NS(=O)(=O)c1cc(C2(O)NC(=O)c3ccccc32)ccc1Cl (centres undefined) [CHLORTHALIDONE]			> 10 µM		> 10 µM		> 10 µM				> 30 µM	
COc1ccc2c(c1)[C@]13CCCC[C@@H]1[C@H](C2)N(C)CC3 [DEXTROMETHORPHAN]			3.58 µM	> 10 µM	> 30 µM	> 10 µM	> 30 µM		> 30 µM		> 30 µM	
O=c1oc2ccccc2c(O)c1Cc1c(O)c2ccccc2oc1=O [DICUMAROL]			> 10 µM				> 10 µM				> 30 µM	
C#C[C@]1(O)CC[C@H]2[C@@H]3CCc4cc(OC)ccc4[C@H]3CC[C@@]21C [MESTRANOL]			> 30 µM		0.516 µM		> 30 µM				> 30 µM	
COCCCOc1ccnc(C[S+]([O-])c2nc3ccccc3[nH]2)c1C (centres undefined) [RABEPRAZOLE]			> 10 µM	> 10 µM	> 30 µM	> 10 µM	> 30 µM		> 30 µM			
O=C(CCCN1CCC2(CC1)C(=O)NCN2c1ccccc1)c1ccc(F)cc1 [SPIPERONE]	> 30 µM	2.25 µM	0.31 µM	> 30 µM	> 30 µM	9.2 µM		1.4 µM	> 30 µM	11.8 µM		
CN(C)c1cc(NC(=O)CNC(C)(C)C)c(O)c2c1C[C@H]1C[C@H]3[C@H](N(C)C)C(O)=C(C(N)=O)C(=O)[C@@]3(O)C(O)=C1C2=O [TIGECYCLINE]	> 30 µM	> 30 µM	> 30 µM	> 30 µM	> 30 µM	> 30 µM	39.5 µM	> 30 µM			> 30 µM	> 30 µM
OCCN1CCN(CC/C=C2/c3ccccc3Sc3ccc(Cl)cc32)CC1 [ZUCLOPENTHIXOL]	> 10 µM	0.32 µM	0.0114 µM	> 10 µM	> 10 µM		> 30 µM	0.028 µM			> 30 µM	0.51 µM
